The target of one experiment is T1, IRAK4 (Homo sapiens, UniProt Q9NWZ3).
T1 sequence (Q9NWZ3 1-460): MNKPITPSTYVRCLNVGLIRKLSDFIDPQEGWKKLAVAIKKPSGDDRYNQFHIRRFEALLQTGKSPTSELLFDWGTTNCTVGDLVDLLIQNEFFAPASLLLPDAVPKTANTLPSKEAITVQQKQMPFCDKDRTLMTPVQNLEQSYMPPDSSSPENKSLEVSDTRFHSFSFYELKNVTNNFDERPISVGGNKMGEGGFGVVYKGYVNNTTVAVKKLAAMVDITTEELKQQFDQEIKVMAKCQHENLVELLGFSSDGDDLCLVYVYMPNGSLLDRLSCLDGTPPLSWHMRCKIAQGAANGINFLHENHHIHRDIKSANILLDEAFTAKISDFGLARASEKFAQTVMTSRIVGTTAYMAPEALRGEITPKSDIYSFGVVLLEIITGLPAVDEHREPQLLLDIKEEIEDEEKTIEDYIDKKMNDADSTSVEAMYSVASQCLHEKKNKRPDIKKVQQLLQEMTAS
Nature of the experiment: IRAK-4 activity inhibition assay (Caliper). The class given is biochemical. Particulars: 37 μM ATP, 3.5 nM IRAK4.

In another experiment the test system is hPBMC. The experiment is described as follows: In vitro LPS/R848/CpG/IL-1β-induced cytokine production assay in hPBMC. The class given is cell-based. As to conditions: Homo sapiens. As to the method: In Vitro LPS/R848/CpG-Induced Cytokine Production Assays in hPBMC or Whole Blood
Compounds of the present invention were also studied in in vitro LPS/R848/CpG-induced cytokine production assays. Exemplary protocols follow.
[…] Cells were seeded in a 96-well plate with 130 ul/well of the cell suspension according to the plate map. 9 ul of 30 mM compound solution was added into the wells in the assigned rows, then serial solutions with 4× dilutions were made. That is, add 9 uL of 100% DMSO into each of the rest wells and take 3 uL of compound solution from the one-step higher concentration solution and mix well with the DMSO. For the second compound master plate, 196 uL of the growth medium (no serum media) were added into each of the wells and 4 uL of the compound solution from the first compound master plate was added and mixed with the media. Cells were treated for 0.5 h by adding 20 uL of the compound and the control solutions prepared in the second master plate to each well according to the plate map. […] Plates were sealed with sealing films and the plates were centrifuged at 3000 rpm at 4 degrees C. for 5 min. The supernatants were transferred, and 100 ul of working Capture antibody solution was added to each well. The plates were sealed and incubated overnight at RT. IL-6, IFN-α or TNF-α detection antibody labeled with biotin: Added 100 uL of the Detection Antibody solution to each well. Covered the plate and incubated for 2 h at RT. Added 100 uL of Streptavidin-HRP solution to each well. Covered the plate and incubate for 20 min at RT in dark. Added 100 uL of Substrate Solution to each well. Incubated for 20 min at RT in dark. Added 50 uL of Stop Solution to each well. Gently tapped the plate to ensure thorough mixing. Determined the optical density of each well immediately, using a microplate reader set to 450 nm and also read at 540 nm or 570 nm for correction if wavelength correction is not available.

A further experiment has as its system ABC DLBCL cell lines. The experiment is described as follows: Cell viability assay, combination with ibrutinib. The class given is cell-based. The protocol:
Compounds of the present invention were also evaluated in a cell viability assay.

Like-named read-outs stand apart in the source and are kept apart here. Some results are limits rather than exact numbers.

In general, IC50 refers to the point on the concentration scale where inhibition reaches its midpoint. For `NC(=O)C[C@H]1CCc2sc3ncnc(O[C@H]4CC[C@H](N5CCOCC5)CC4)c3c21` [Compound I-67, 2-((R)-4-(((1r,4R)-4-morpholinocyclohexyl)oxy)-6,7-dihydro-5H-cyclopenta[4,5]thieno[2,3-d]pyrimidin-5-yl)acetamide], the IC50 at IRAK4 was under 5000 nM; in the experiment with hPBMC (CpG 0.1 uM, read-out: IFN-α production IC50), 500 to 1000 nM; with hPBMC (CpG 0.5 uM, read-out: TNF-α production IC50), 250 to 500 nM; with hPBMC (IL-1β 1 ng/mL, read-out: IL-6 production IC50), 250 to 500 nM; in the experiment with hPBMC (LPS 0.01 ug/mL, read-out: IL-6 production IC50), at most 250 nM; with hPBMC (LPS 0.01 ug/mL, read-out: TNF-α production IC50), 250 to 500 nM. For the same compound, the IC50 in the experiment with hPBMC (R848 1 uM, read-out: TNF-α production IC50) was in the range of 500 to 1000 nM. For the same compound, the “Killing of ABC DLBCL cells in combination with ibrutinib” value in the experiment with ABC DLBCL cell lines was “Synergistic killing”.

For the origin of these results see patent US20160193216A1 (Nimbus Iris, Inc., priority 2012, published 2016).
